Values quoted from earlier work in patent publication US20110081416A1, “ORDERED MESOPOROUS SILICA MATERIAL” (FORMAC Pharmaceuticals N.V., priority 2008, published 2011).

Tests used:
[1] = Table 3, acids with a pKa of less than 2
[2] = not given; remark: listed apart in the source

CC(=O)O[C@H]1C(=O)[C@@]2(C)[C@H]([C@H](OC(=O)c3ccccc3)[C@]3(O)C[C@H](OC(=O)[C@H](O)[C@@H](NC(=O)c4ccccc4)c4ccccc4)C(C)=C1C3(C)C)[C@]1(OC(C)=O)CO[C@@H]1C[C@@H]2O [Paclitaxel]
solubility in water (in words): insoluble

O=S(=O)(O)NC1CCCCC1 [cyclamic acid]
pKa [1]: 1.90

C#C[C@]1(O)CC[C@H]2[C@@H]3CCC4=Cc5oncc5C[C@]4(C)[C@H]3CC[C@@]21C [Danazol, 17a-Pregna-2,4-dien-20-yno[2,3-d]-isoxazol-17-ol]
increase in plasma concentration on doubling the dose ([2]; doubling the dose): 30-40% | half-life ([2]; in vivo): 4 to 5 h | time of peak (plasma) concentrations ([2]; oral): ≤ 2 h

NC(=O)N1c2ccccc2C=Cc2ccccc21 [Carbamazepine, 5H-dibenz[b,f]azepine-5-carboxamide]
solubility in alcohol and acetone (in words) (alcohol and acetone): soluble | solubility in water (in words): practically insoluble

C=CC[C@@H]1/C=C(\C)C[C@H](C)C[C@H](OC)[C@H]2O[C@@](O)(C(=O)C(=O)N3CCCC[C@H]3C(=O)O[C@H](/C(C)=C/[C@@H]3CC[C@@H](O)[C@H](OC)C3)[C@H](C)[C@@H](O)CC1=O)[C@H](C)C[C@@H]2OC [Tacrolimus]
absolute bioavailability ([2]; 5 mg dose taken twice a day): approximately 17% | solubility in ethanol (in words) (ethanol): freely soluble | solubility in methanol and chloroform (in words) (methanol and chloroform): very soluble | solubility in water (in words): practically insoluble

CCC(C)n1ncn(-c2ccc(N3CCN(c4ccc(OCC5COC(Cn6cncn6)(c6ccc(Cl)cc6Cl)O5)cc4)CC3)cc2)c1=O (stereo not shown) [Itraconazole]
solubility in water (in words): poorly soluble

O=S(O)O [sulfurous acid]
pKa [1]: 1.81
